Patent publication US8709999B2, “Substituted bicyclic HCV inhibitors” (Presidio Pharmaceuticals, Inc., priority 2009, dated 2014)
pEC50: −log10 of the molar value.

What follows are molecules tested on HCV 1b_Huh-Luc/Neo-ET cell line (bicistronic genotype 1b replicon in Huh 7 cells) (assay: HCV replicon assay (luciferase readout)). Details: Hepatitis C virus, Huh-7, 72 h, read-out: Inhibition of HCB genotype 1b.
Format: cell-based, HCV genotype 1b
Experimental: Biological activity of the compounds of the invention was determined using an HCV replicon assay. The HCV 1b_Huh-Luc/Neo-ET cell line persistently expressing a bicistronic genotype 1b replicon in Huh 7 cells was obtained from ReBLikon GMBH. This cell line was used to test compound inhibition using luciferase enzyme activity readout as a measurement of compound inhibition of replicon levels.
On Day 1 (the day after plating cells), each compound is added in triplicate to the cells. Plates are incubated for 72 h prior to determining luciferase levels. Enzyme activity was measured using a Bright-Glo Kit (cat. number E2620) manufactured by Promega Corporation. The following equation was used to generate a percent control value for each compound. % Control=(Compound Luciferase Level/Control Luciferase Level)*100
The EC50 value was determined using GraphPad Prism and the following equation: Y=Bottom asymptote+(Top asymptote−Bottom asymptote)/(1+10^((LogEC50−X)*HillSlope))
EC50 values of compounds are determined several times in the replicon assay to generate average EC50 values.
CC[C@H](C)[C@H](NC(=O)OC)C(=O)N1CCC[C@H]1c1ncc(-c2ccc(-c3ccc(-c4cnc([C@@H]5CCCN5C(=O)[C@@H](NC(=O)OC)[C@@H](C)CC)[nH]4)c(OCCOC)c3OCCOC)cc2)[nH]1 [Compound 3] was tested, and the pEC50 was over 9.00.
With COCCOc1c(-c2ccc(-c3cnc([C@@H]4CCCN4C(=O)[C@@H](NC(=O)OC)[C@@H](C)OC)[nH]3)cc2)ccc(-c2cnc([C@@H]3CCCN3C(=O)[C@@H](NC(=O)OC)[C@@H](C)OC)[nH]2)c1OCCOC [Compound 12] the pEC50 was 8.00 to 9.00.
COCCOc1cc(-c2cnc([C@@H]3CCCN3C(=O)[C@@H](NC(=O)OC)C(C)C)[nH]2)ccc1-c1ccc(-c2cnc([C@@H]3CCCN3C(=O)[C@@H](NC(=O)OC)C(C)C)[nH]2)cc1OCCOC [Compound 1] was tested, and the pEC50 was over 9.00.
COCCOc1c(-c2ccc(-c3cnc([C@@H]4CCCN4C(=O)[C@@H](NC(=O)OC)C4CCCC4)[nH]3)cc2)ccc(-c2cnc([C@@H]3CCCN3C(=O)[C@@H](NC(=O)OC)C3CCCC3)[nH]2)c1OCCOC [Compound 4] gave a pEC50 of over 9.00.
With COCCOc1c(-c2ccc(-c3cnc([C@@H]4CCCN4C(=O)[C@@H](c4ccccc4)N4CCCC4)[nH]3)cc2)ccc(-c2cnc([C@@H]3CCCN3C(=O)[C@@H](c3ccccc3)N3CCCC3)[nH]2)c1OCCOC [Compound 16] the pEC50 was 8.00 to 9.00.
COCCOc1c(-c2ccc(-c3cnc([C@@H]4CCCN4C(=O)[C@@H](NC(=O)OC)C(C)C)[nH]3)cc2)ccc(-c2cnc([C@@H]3CCCN3C(=O)[C@H](C)NC(=O)OC)[nH]2)c1OCCOC [Compound 18] showed a pEC50 of 8.00 to 9.00.
In the case of COCCOc1c(-c2ccc(-c3cnc([C@@H]4CCCN4C(=O)[C@H](C)NC(=O)OC)[nH]3)cc2)ccc(-c2cnc([C@@H]3CCCN3C(=O)[C@H](C)NC(=O)OC)[nH]2)c1OCCOC [Compound 10], the pEC50 was over 9.00.
Molecule COCCOc1c(-c2ccc(-c3cnc([C@@H]4CCCN4C(=O)[C@H](NS(C)(=O)=O)c4ccccc4)[nH]3)cc2)ccc(-c2cnc([C@@H]3CCCN3C(=O)[C@H](NS(C)(=O)=O)c3ccccc3)[nH]2)c1OCCOC [Compound 17] has a pEC50 of over 9.00.
COCCOc1c(-c2ccc(-c3cnc([C@@H]4CCCN4C(=O)[C@H](COC)NC(=O)OC)[nH]3)cc2)ccc(-c2cnc([C@@H]3CCCN3C(=O)[C@H](COC)NC(=O)OC)[nH]2)c1OCCOC [Compound 11] showed a pEC50 of 6.00 to 8.00.
CC[C@H](C)[C@H](NC(=O)OC)C(=O)N1CCC[C@H]1c1ncc(-c2ccc(-c3ccc(-c4cnc([C@@H]5CCCN5C(=O)[C@@H](NC(=O)OC)C(C)C)[nH]4)cc3)c(OCCOC)c2OCCOC)[nH]1 [Compound 19] showed a pEC50 of over 9.00.
In the case of COCCOc1cc(-c2cnc([C@@H]3CCCN3C(=O)[C@H](C)NC(=O)OC)[nH]2)ccc1-c1ccc(-c2cnc([C@@H]3CCCN3C(=O)[C@H](C)NC(=O)OC)[nH]2)cc1OCCOC [Compound 6], the pEC50 was 6.00 to 8.00.
In the case of COCCOc1c(-c2ccc(-c3cnc([C@@H]4CCCN4C(=O)[C@@H](NC(=O)OC)C(C)(C)C)[nH]3)cc2)ccc(-c2cnc([C@@H]3CCCN3C(=O)[C@@H](NC(=O)OC)C(C)(C)C)[nH]2)c1OCCOC [Compound 13], the pEC50 was 8.00 to 9.00.
Molecule COCCOc1c(-c2ccc(-c3cnc([C@@H]4CCCN4C(=O)[C@@H](NC(=O)OC)C4CCOCC4)[nH]3)cc2)ccc(-c2cnc([C@@H]3CCCN3C(=O)[C@@H](NC(=O)OC)C3CCOCC3)[nH]2)c1OCCOC [Compound 14] has a pEC50 of 8.00 to 9.00.
With CC[C@H](C)[C@H](NC(=O)OC)C(=O)N1CCC[C@H]1c1ncc(-c2ccc(-c3ccc(-c4cnc([C@@H]5CCCN5C(=O)[C@@H](NC(=O)OC)[C@@H](C)CC)[nH]4)cc3OCCOC)c(OCCOC)c2)[nH]1 [Compound 7] the pEC50 was over 9.00.
With COCCOc1c(-c2ccc(-c3cnc([C@@H]4CCCN4C(=O)[C@@H](c4ccccc4)N(C)C)[nH]3)cc2)ccc(-c2cnc([C@@H]3CCCN3C(=O)[C@@H](c3ccccc3)N(C)C)[nH]2)c1OCCOC [Compound 15] the pEC50 was over 9.00.
With COCCOc1cc(-c2cnc([C@@H]3CCCN3C(=O)[C@@H](NC(=O)OC)C3CCCC3)[nH]2)ccc1-c1ccc(-c2cnc([C@@H]3CCCN3C(=O)[C@@H](NC(=O)OC)C3CCCC3)[nH]2)cc1OCCOC [Compound 8] the pEC50 was over 9.00.
Molecule COCCOc1c(-c2ccc(-c3cnc([C@@H]4CCCN4C(=O)[C@@H](NC(=O)OC)C(C)C)[nH]3)cc2)ccc(-c2cnc([C@@H]3CCCN3C(=O)[C@@H](NC(=O)OC)C(C)C)[nH]2)c1OCCOC [Compound 2] has a pEC50 of over 9.00.
COCCOc1cc(-c2cnc([C@@H]3CCCN3C(=O)[C@@H](NC(=O)OC)C3CCCCC3)[nH]2)ccc1-c1ccc(-c2cnc([C@@H]3CCCN3C(=O)[C@@H](NC(=O)OC)C3CCCCC3)[nH]2)cc1OCCOC [Compound 9] was tested, and the pEC50 was over 9.00.
